Source: patent US20250249056A1, “CANCER THERAPIES COMPRISING A NUCLEAR EXPORT INHIBITOR AND AN ONCOLYTIC VIRUS” (priority 2022, published 2025)

Test system: Colo205 cells
Assay type: cell-based, human

O=C(/C=C\n1cnc(-c2cc(C(F)(F)F)cc(C(F)(F)F)c2)n1)NNc1cnccn1 [selinexor]
Differential protein expression, SCAF1: 100 | Differential protein expression, A2ML1 (A8K2U0, selinexor-treated cytoplasm vs control cytoplasm): 3.444 | Differential protein expression, PHF20L1 (A8MW92, selinexor-treated cytoplasm vs control cytoplasm): 0.01 | Differential protein expression, KPNA7 (A9QM74, selinexor-treated cytoplasm vs control cytoplasm): 0.149 | Differential protein expression, accession B2CWB5 (B2CWB5 (gene symbol not given), selinexor-treated cytoplasm vs control cytoplasm): 0.01 | Differential protein expression, m033R (B2CWE0, selinexor-treated cytoplasm vs control cytoplasm): 0.01 | Differential protein expression, m047R (B2CWF4, selinexor-treated cytoplasm vs control cytoplasm): 0.01 | Differential protein expression, m060R (B2CWG7, selinexor-treated cytoplasm vs control cytoplasm): 0.01 | Differential protein expression, accession B2CWJ3 (B2CWJ3 (gene symbol not given), selinexor-treated cytoplasm vs control cytoplasm): 0.01 | Differential protein expression, accession B2CWL4 (B2CWL4 (gene symbol not given), selinexor-treated cytoplasm vs control cytoplasm): 100 | Differential protein expression, m149R (B2CWQ5, selinexor-treated cytoplasm vs control cytoplasm): 100 | Differential protein expression, HNRNPCL2 (B2RXH8, selinexor-treated cytoplasm vs control cytoplasm): 2.92 | Differential protein expression, HNRNPCL3 (B7ZW38, selinexor-treated cytoplasm vs control cytoplasm): 2.963 | Differential protein expression, m107L (E2CZJ6, selinexor-treated cytoplasm vs control cytoplasm): 100 | Differential protein expression, m126R (E2CZL5, selinexor-treated cytoplasm vs control cytoplasm): 0.193 | Differential protein expression, m001R (E2CZP2, selinexor-treated cytoplasm vs control cytoplasm): 3.839 | Differential protein expression, m009L (E2CZQ3, selinexor-treated cytoplasm vs control cytoplasm): 0.01 | Differential protein expression, m055R (E2CZV0, selinexor-treated cytoplasm vs control cytoplasm): 2.342 | Differential protein expression, m072L (E2CZW7, selinexor-treated cytoplasm vs control cytoplasm): 3.124 | Differential protein expression, m086L (E2CZY1, selinexor-treated cytoplasm vs control cytoplasm): 0.01 | Differential protein expression, AGRN (O00468, selinexor-treated cytoplasm vs control cytoplasm): 0.494 | Differential protein expression, SDCBP (O00560, selinexor-treated cytoplasm vs control cytoplasm): 2.743 | Differential protein expression, MPHOSPH10 (O00566, selinexor-treated cytoplasm vs control cytoplasm): 2.761 | Differential protein expression, UBE2C (O00762, selinexor-treated cytoplasm vs control cytoplasm): 0.459 | Differential protein expression, SCD (O00767, selinexor-treated cytoplasm vs control cytoplasm): 0.297 | Differential protein expression, M-T1 (O10625, selinexor-treated cytoplasm vs control cytoplasm): 3.839 | Differential protein expression, CLDN4 (O14493, selinexor-treated cytoplasm vs control cytoplasm): 10.645 | Differential protein expression, UTY (O14607, selinexor-treated cytoplasm vs control cytoplasm): 0.01 | Differential protein expression, MEIS2 (O14770, selinexor-treated cytoplasm vs control cytoplasm): 0.01 | Differential protein expression, BACH1 (O14867, selinexor-treated cytoplasm vs control cytoplasm): 100 | Differential protein expression, IRF6 (O14896, selinexor-treated cytoplasm vs control cytoplasm): 2.466 | Differential protein expression, MYL12B (O14950, selinexor-treated cytoplasm vs control cytoplasm): 2.249 | Differential protein expression, XPO1 (O14980, selinexor-treated cytoplasm vs control cytoplasm): 0.335 | Differential protein expression, MAPK13 (O15264, selinexor-treated cytoplasm vs control cytoplasm): 2.006 | Differential protein expression, DDX3Y (O15523, selinexor-treated cytoplasm vs control cytoplasm): 100 | Differential protein expression, MAFG (O15525, selinexor-treated cytoplasm vs control cytoplasm): 0.453 | Differential protein expression, CLDN3 (O15551, selinexor-treated cytoplasm vs control cytoplasm): 2.357 | Differential protein expression, SPINT1 (O43278, selinexor-treated cytoplasm vs control cytoplasm): 4.255 | Differential protein expression, KDELR3 (O43731, selinexor-treated cytoplasm vs control cytoplasm): 0.379 | Differential protein expression, ZBTB14 (O43829, selinexor-treated cytoplasm vs control cytoplasm): 0.01 | Differential protein expression, HNRNPCL1 (O60812, selinexor-treated cytoplasm vs control cytoplasm): 2.92 | Differential protein expression, NOS1AP (O75052, selinexor-treated cytoplasm vs control cytoplasm): 0.01 | Differential protein expression, SIN3B (O75182, selinexor-treated cytoplasm vs control cytoplasm): 0.01 | Differential protein expression, ZNF217 (O75362, selinexor-treated cytoplasm vs control cytoplasm): 2.042 | Differential protein expression, TAF5L (O75529, selinexor-treated cytoplasm vs control cytoplasm): 100 | Differential protein expression, BANF1 (O75531, selinexor-treated cytoplasm vs control cytoplasm): 2.438 | Differential protein expression, PIAS2 (O75928, selinexor-treated cytoplasm vs control cytoplasm): 100 | Differential protein expression, ZFAND5 (O76080, selinexor-treated cytoplasm vs control cytoplasm): 0.48 | Differential protein expression, SUPT7L (O94864, selinexor-treated cytoplasm vs control cytoplasm): 0.01 | Differential protein expression, HEXIM1 (O94992, selinexor-treated cytoplasm vs control cytoplasm): 3.29 | Differential protein expression, SVIL (O95425, selinexor-treated cytoplasm vs control cytoplasm): 0.01 | Differential protein expression, NUDT3 (O95989, selinexor-treated cytoplasm vs control cytoplasm): 3.124 | Differential protein expression, DHFR (P00374, selinexor-treated cytoplasm vs control cytoplasm): 0.419 | Differential protein expression, OAS1 (P00973, selinexor-treated cytoplasm vs control cytoplasm): 2.17 | Differential protein expression, TIMP1 (P01033, selinexor-treated cytoplasm vs control cytoplasm): 2.021 | Differential protein expression, CSTA (P01040, selinexor-treated cytoplasm vs control cytoplasm): 3.956 | Differential protein expression, FOS (P01100, selinexor-treated cytoplasm vs control cytoplasm): 0.01 | Differential protein expression, KRT14 (P02533, selinexor-treated cytoplasm vs control cytoplasm): 3.261 | Differential protein expression, KRT6A (P02538, selinexor-treated cytoplasm vs control cytoplasm): 3.082 | Differential protein expression, APOD (P05090, selinexor-treated cytoplasm vs control cytoplasm): 7.079 | Differential protein expression, S100A8 (P05109, selinexor-treated cytoplasm vs control cytoplasm): 3.524 | Differential protein expression, CENPB (P07199, selinexor-treated cytoplasm vs control cytoplasm): 0.01 | Differential protein expression, PRSS2 (P07478, selinexor-treated cytoplasm vs control cytoplasm): 0.479 | Differential protein expression, HNRNPC (P07910, selinexor-treated cytoplasm vs control cytoplasm): 2.948 | Differential protein expression, ASNS (P08243, selinexor-treated cytoplasm vs control cytoplasm): 0.353 | Differential protein expression, NFIC (P08651, selinexor-treated cytoplasm vs control cytoplasm): 0.01 | Differential protein expression, KRT16 (P08779, selinexor-treated cytoplasm vs control cytoplasm): 4.248 | Differential protein expression, TOP2A (P11388, selinexor-treated cytoplasm vs control cytoplasm): 0.458 | Differential protein expression, CDK4 (P11802, selinexor-treated cytoplasm vs control cytoplasm): 0.445 | Differential protein expression, NEFH (P12036, selinexor-treated cytoplasm vs control cytoplasm): 2.248 | Differential protein expression, CDH1 (P12830, selinexor-treated cytoplasm vs control cytoplasm): 4.064 | Differential protein expression, KRT10 (P13645, selinexor-treated cytoplasm vs control cytoplasm): 2.123 | Differential protein expression, KRT5 (P13647, selinexor-treated cytoplasm vs control cytoplasm): 2.042 | Differential protein expression, CD59 (P13987, selinexor-treated cytoplasm vs control cytoplasm): 2.269 | Differential protein expression, PLA2G2A (P14555, selinexor-treated cytoplasm vs control cytoplasm): 2.128 | Differential protein expression, CCNB1 (P14635, selinexor-treated cytoplasm vs control cytoplasm): 0.377 | Differential protein expression, MYL6B (P14649, selinexor-treated cytoplasm vs control cytoplasm): 2.392 | Differential protein expression, HNRNPL (P14866, selinexor-treated cytoplasm vs control cytoplasm): 2.044 | Differential protein expression, GLUL (P15104, selinexor-treated cytoplasm vs control cytoplasm): 2.48 | Differential protein expression, ATF2 (P15336, selinexor-treated cytoplasm vs control cytoplasm): 0.01 | Differential protein expression, FOSL2 (P15408, selinexor-treated cytoplasm vs control cytoplasm): 100 | Differential protein expression, H1-3 (P16402, selinexor-treated cytoplasm vs control cytoplasm): 14.354 | Differential protein expression, ZKSCAN1 (P17029, selinexor-treated cytoplasm vs control cytoplasm): 100 | Differential protein expression, SDC1 (P18827, selinexor-treated cytoplasm vs control cytoplasm): 2.678 | Differential protein expression, ATF1 (P18846, selinexor-treated cytoplasm vs control cytoplasm): 100 | Differential protein expression, MYL12A (P19105, selinexor-treated cytoplasm vs control cytoplasm): 2.269 | Differential protein expression, IMPDH1 (P20839, selinexor-treated cytoplasm vs control cytoplasm): 0.485 | Differential protein expression, TGM1 (P22735, selinexor-treated cytoplasm vs control cytoplasm): 2.137 | Differential protein expression, MYL9 (P24844, selinexor-treated cytoplasm vs control cytoplasm): 2.253 | Differential protein expression, DNMT1 (P26358, selinexor-treated cytoplasm vs control cytoplasm): 0.424 | Differential protein expression, RBL1 (P28749, selinexor-treated cytoplasm vs control cytoplasm): 0.395 | Differential protein expression, GRN (P28799, selinexor-treated cytoplasm vs control cytoplasm): 2.493 | Differential protein expression, KDM5A (P29375, selinexor-treated cytoplasm vs control cytoplasm): 0.01 | Differential protein expression, SERPINB3 (P29508, selinexor-treated cytoplasm vs control cytoplasm): 34.048 | Differential protein expression, SLC7A1 (P30825, selinexor-treated cytoplasm vs control cytoplasm): 0.272 | Differential protein expression, S100A7 (P31151, selinexor-treated cytoplasm vs control cytoplasm): 2.547 | Differential protein expression, RRM2 (P31350, selinexor-treated cytoplasm vs control cytoplasm): 0.284 | Differential protein expression, CASP14 (P31944, selinexor-treated cytoplasm vs control cytoplasm): 2.655 | Differential protein expression, CDA (P32320, selinexor-treated cytoplasm vs control cytoplasm): 2.571 | Differential protein expression, GBP1 (P32455, selinexor-treated cytoplasm vs control cytoplasm): 0.01 | Differential protein expression, KRT9 (P35527, selinexor-treated cytoplasm vs control cytoplasm): 0.486 | Differential protein expression, MYH9 (P35579, selinexor-treated cytoplasm vs control cytoplasm): 2.051 | Differential protein expression, MYH10 (P35580, selinexor-treated cytoplasm vs control cytoplasm): 2.213 | Differential protein expression, HSD17B2 (P37059, selinexor-treated cytoplasm vs control cytoplasm): 2.045 | Differential protein expression, FDFT1 (P37268, selinexor-treated cytoplasm vs control cytoplasm): 0.453 | Differential protein expression, PBX3 (P40426, selinexor-treated cytoplasm vs control cytoplasm): 0.01 | Differential protein expression, SLC1A4 (P43007, selinexor-treated cytoplasm vs control cytoplasm): 0.439 | Differential protein expression, MATR3 (P43243, selinexor-treated cytoplasm vs control cytoplasm): 5.731 | Differential protein expression, RFX3 (P48380, selinexor-treated cytoplasm vs control cytoplasm): 0.152 | Differential protein expression, SERPINB4 (P48594, selinexor-treated cytoplasm vs control cytoplasm): 5.894 | Differential protein expression, HNRNPA3 (P51991, selinexor-treated cytoplasm vs control cytoplasm): 2.069 | Differential protein expression, ZNF131 (P52739, selinexor-treated cytoplasm vs control cytoplasm): 0.01 | Differential protein expression, RBM5 (P52756, selinexor-treated cytoplasm vs control cytoplasm): 0.01 | Differential protein expression, PLK1 (P53350, selinexor-treated cytoplasm vs control cytoplasm): 0.01 | Differential protein expression, CEBPG (P53567, selinexor-treated cytoplasm vs control cytoplasm): 0.01 | Differential protein expression, MAPK12 (P53778, selinexor-treated cytoplasm vs control cytoplasm): 2.006 | Differential protein expression, POLG (P54098, selinexor-treated cytoplasm vs control cytoplasm): 0.27 | Differential protein expression, EPHB3 (P54753, selinexor-treated cytoplasm vs control cytoplasm): 0.496 | Differential protein expression, PKNOX1 (P55347, selinexor-treated cytoplasm vs control cytoplasm): 0.01 | Differential protein expression, MAZ (P56270, selinexor-treated cytoplasm vs control cytoplasm): 0.01 | Differential protein expression, HDAC4 (P56524, selinexor-treated cytoplasm vs control cytoplasm): 0.458 | Differential protein expression, PCBP3 (P57721, selinexor-treated cytoplasm vs control cytoplasm): 2.306 | Differential protein expression, CKS1B (P61024, selinexor-treated cytoplasm vs control cytoplasm): 0.422 | Differential protein expression, POLR2F (P61218, selinexor-treated cytoplasm vs control cytoplasm): 2.135 | Differential protein expression, SNRPE (P62304, selinexor-treated cytoplasm vs control cytoplasm): 2.173 | Differential protein expression, SNRPF (P62306, selinexor-treated cytoplasm vs control cytoplasm): 2.172 | Differential protein expression, SNRPD1 (P62314, selinexor-treated cytoplasm vs control cytoplasm): 2.056 | Differential protein expression, SNRPD2 (P62316, selinexor-treated cytoplasm vs control cytoplasm): 2.406 | Differential protein expression, RHOB (P62745, selinexor-treated cytoplasm vs control cytoplasm): 0.01 | Differential protein expression, ARF1 (P84077, selinexor-treated cytoplasm vs control cytoplasm): 2.133 | Differential protein expression, H3-3A; H3-3B (P84243, selinexor-treated cytoplasm vs control cytoplasm): 3.295 | Differential protein expression, HSPG2 (P98160, selinexor-treated cytoplasm vs control cytoplasm): 0.441 | Differential protein expression, KRT24 (Q2M2I5, selinexor-treated cytoplasm vs control cytoplasm): 2.716 | Differential protein expression, SMU1 (Q2TAY7, selinexor-treated cytoplasm vs control cytoplasm): 2.21 | Differential protein expression, KRT71 (Q3SY84, selinexor-treated cytoplasm vs control cytoplasm): 4.935 | Differential protein expression, COA6 (Q5JTJ3, selinexor-treated cytoplasm vs control cytoplasm): 2.872
